Test results published in BindingDB's records for doi:10.1016/j.bmcl.2005.01.005 (East China Normal University, 2022).

What was measured:
[1] = molecular target: Potassium voltage-gated channel subfamily H member 2 (Homo sapiens, UniProt Q12809); experiment: Inhibition of hERG expressed in CHO cells Qpatch-clamp electrophysiology assay
[2] = molecular target: Polyketide synthase Pks13 (Mycobacterium tuberculosis (strain ATCC 25618 / H37Rv), UniProt I6X8D2); experiment: Inhibition of Mycobacterium tuberculosis Pks13-TE expressed in Escherichia coli BL21(DE3) pLysS
Chain of Polyketide synthase Pks13 (I6X8D2 whole entry): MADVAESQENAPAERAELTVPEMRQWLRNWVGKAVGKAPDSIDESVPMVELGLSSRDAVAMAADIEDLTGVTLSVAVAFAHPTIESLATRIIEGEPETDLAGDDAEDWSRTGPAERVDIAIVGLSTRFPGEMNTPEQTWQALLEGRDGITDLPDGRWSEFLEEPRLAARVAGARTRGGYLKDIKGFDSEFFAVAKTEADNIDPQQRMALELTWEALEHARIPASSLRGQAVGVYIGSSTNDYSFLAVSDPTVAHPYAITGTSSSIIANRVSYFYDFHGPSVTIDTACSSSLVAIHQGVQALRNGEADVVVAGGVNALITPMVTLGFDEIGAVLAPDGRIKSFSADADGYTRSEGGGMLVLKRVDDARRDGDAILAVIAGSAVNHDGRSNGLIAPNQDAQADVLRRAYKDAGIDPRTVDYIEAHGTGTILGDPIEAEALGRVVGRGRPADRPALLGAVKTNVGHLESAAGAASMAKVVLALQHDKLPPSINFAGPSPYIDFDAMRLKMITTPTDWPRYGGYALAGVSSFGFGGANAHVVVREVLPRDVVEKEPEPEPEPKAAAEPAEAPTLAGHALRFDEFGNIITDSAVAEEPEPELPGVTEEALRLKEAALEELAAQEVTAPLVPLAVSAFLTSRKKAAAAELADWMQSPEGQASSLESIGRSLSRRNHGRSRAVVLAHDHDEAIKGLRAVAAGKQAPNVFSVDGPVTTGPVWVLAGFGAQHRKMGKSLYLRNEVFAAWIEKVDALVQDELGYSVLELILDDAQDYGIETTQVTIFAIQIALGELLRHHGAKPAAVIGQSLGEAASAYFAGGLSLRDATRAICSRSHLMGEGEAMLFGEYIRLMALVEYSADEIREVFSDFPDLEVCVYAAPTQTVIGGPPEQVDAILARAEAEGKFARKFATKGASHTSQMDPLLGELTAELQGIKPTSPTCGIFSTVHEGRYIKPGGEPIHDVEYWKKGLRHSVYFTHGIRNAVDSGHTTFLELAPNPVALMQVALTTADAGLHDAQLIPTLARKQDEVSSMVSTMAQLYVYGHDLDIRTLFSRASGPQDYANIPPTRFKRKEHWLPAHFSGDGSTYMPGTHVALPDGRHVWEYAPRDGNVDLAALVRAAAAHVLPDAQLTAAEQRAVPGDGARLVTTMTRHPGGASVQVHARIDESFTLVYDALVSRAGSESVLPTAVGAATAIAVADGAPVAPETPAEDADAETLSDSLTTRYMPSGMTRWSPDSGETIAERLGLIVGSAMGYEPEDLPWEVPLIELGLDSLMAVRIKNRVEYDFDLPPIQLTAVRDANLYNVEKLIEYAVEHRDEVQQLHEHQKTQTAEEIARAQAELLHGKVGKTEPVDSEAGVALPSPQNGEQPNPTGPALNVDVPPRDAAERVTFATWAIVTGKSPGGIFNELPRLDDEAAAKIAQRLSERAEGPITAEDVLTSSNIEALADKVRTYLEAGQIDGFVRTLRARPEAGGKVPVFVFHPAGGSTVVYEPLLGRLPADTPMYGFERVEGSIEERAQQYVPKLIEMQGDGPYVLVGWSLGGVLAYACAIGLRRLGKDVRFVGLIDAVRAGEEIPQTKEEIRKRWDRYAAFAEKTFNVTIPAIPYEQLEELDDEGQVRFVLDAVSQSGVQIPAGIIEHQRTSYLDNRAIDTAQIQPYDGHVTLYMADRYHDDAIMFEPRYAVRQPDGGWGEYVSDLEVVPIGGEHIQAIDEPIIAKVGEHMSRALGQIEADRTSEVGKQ

Chain of Potassium voltage-gated channel subfamily H member 2 (Q12809 whole entry): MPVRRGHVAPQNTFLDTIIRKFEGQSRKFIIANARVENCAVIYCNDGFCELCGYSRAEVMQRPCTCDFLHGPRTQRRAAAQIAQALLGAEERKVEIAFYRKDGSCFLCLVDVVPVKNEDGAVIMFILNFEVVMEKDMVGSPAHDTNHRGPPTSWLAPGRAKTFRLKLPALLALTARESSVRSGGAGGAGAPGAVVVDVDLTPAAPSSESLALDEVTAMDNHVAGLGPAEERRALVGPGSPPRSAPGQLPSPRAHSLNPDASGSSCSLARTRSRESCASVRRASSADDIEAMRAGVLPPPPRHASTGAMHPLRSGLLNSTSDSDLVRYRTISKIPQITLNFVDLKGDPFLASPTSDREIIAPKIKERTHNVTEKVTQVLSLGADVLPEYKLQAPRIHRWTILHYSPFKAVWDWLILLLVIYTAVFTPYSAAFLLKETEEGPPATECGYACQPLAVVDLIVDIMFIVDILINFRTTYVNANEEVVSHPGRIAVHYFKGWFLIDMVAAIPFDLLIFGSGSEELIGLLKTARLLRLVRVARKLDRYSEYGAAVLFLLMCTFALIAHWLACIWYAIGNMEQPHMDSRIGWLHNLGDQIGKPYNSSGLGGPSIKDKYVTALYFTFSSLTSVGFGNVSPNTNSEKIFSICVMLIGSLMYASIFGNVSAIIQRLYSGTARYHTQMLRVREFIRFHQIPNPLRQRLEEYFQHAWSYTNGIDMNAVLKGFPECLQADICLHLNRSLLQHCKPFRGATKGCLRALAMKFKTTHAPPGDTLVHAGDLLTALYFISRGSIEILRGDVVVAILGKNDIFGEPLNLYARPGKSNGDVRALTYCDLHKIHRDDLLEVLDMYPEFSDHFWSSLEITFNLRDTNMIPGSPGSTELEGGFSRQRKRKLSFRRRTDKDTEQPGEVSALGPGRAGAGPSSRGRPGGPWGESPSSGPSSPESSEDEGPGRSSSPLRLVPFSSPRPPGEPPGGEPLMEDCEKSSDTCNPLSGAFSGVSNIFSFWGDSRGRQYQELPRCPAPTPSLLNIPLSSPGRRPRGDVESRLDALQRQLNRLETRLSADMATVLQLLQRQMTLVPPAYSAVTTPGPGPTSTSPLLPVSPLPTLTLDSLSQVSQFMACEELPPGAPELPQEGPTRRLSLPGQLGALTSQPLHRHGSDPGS

O=c1oc2cc(O)ccc2c2oc3ccc(O)c(CN4CCCCC4)c3c12
IC50 [1]: > 30000 nM

O=c1oc2cc(O)ccc2c2oc3ccc(O)c(CN4CCC(F)CC4)c3c12
IC50 [2]: 1550 nM

O=c1oc2cc(O)ccc2c2oc3ccc4c(c3c12)CN(C1CCCC1)CO4
IC50 [2]: 1300 nM | IC50 [1]: 520 nM
